Data published in patent US20180118699A1, “SK AND IK CHANNEL AGONISTS FOR TREATMENT OF HEART FAILURE” (THE TRUSTEES OF COLUMBIA UNIVERSITY IN THE CITY OF NEW YORK, priority 2015, published 2018).
Read-outs that look alike come from different tables or passages of the source. Each block holds one compound with its values, some of them ahead of it.

Columns and labels:
human KCNN3 (SK3) = molecular target: T1, human KCNN3 (SK3) (Homo sapiens, UniProt P0DP23+Q9UGI6); experiment: Whole-cell patch clamp of KCa potassium channel activator activity in transfected HEK293 cells; type: cell-based; settings: HEK293 SK3 whole-cell currents
T1 construct: GFP; expressed in transfected cells; host or cells: HEK293
Text: Currents were activated by 200 msec depolarizing ramps between −120 mV and +30 mV, from a holding potential of −90 mV, and then deactivated by repolarization to the holding potential. […] Colored bars indicate application of the XX-03-64 and XX-03-56 agonists.
Currents were activated by 200 msec depolarizing ramps between −120 mV and +30 mV, from a holding potential of −90 mV, and then deactivated by repolarization to the holding potential. Voltage ramps were applied every 5 seconds. The bath solution was 140 mM NaCl, 4 mM KCl, 0.1 mM CaCl2, 3 mM Mg Cl2, 10 mM HEPES (pH 7.4) and the pipette solution was 150 mM KCl, 5 mM TES (pH 7.2), 2 mM HEDTA, and 1 μM free Ca^2+. The free Ca^2+ concentration was calculated using the Max Chelator program and confirmed using a Ca^2+ electrode (Orion). Agonists were superfused in the bath solution.

BK channels [1] = molecular target: T2, BK channels (Mus musculus, UniProt Q08460); experiment: Whole cell K+ currents in freshly isolated mesenteric VSM cells; type: cell-based, mice; settings: control VSM cells, 2 μM Ang II
T2 construct: from tissue; host or cells: third-order mesenteric resistance arteries of mice (sham and heart failure)
Description: Whole cell K^+ currents at baseline (black trace) and after exposure to 1 μM paxilline (red trace in FIG. 14A) or 2 μM Ang II (blue trace in FIG. 14B). The intrapipette solution contained 9 μM Ca^2+.
Conversely, Ang II (2 μM) or phenylephrine (10 μM) may differentially modulate channel function in VSM cells isolated from HF mice. Ang II inhibits BK channel function through its effects on PKC, c-Src and Nox (Lu et al. 2010). Ang II causes less inhibition if BK channels are already modified by PKC, c-Src or Nox pathways, as compared to the effect on BK channels from control VSM cells, in which Ang II suppressed BK current by 50% (see FIG. 14B).
Two determinants of BK activity are used: STOCs and whole-cell current density. BK currents are a very large fraction of the total K^+ currents in freshly isolated mesenteric VSM cells (see FIG. 14A). […] PKCα and PKCδ may be the relevant PKC isoforms, which are further delineated using specific inhibitors.

[2] = two hours after IP injection of 100 μg (5 μg/g); cited from earlier work
[3] = cited from earlier work
SK3 and IK1 channels = experiment: Electrophysiology of freshly isolated mesenteric endothelial cells; type: cell-based, mice
Text: FIGS. 18A-18D collectively are graphs showing electrophysiological characterization of SK channels in freshly isolated mesenteric endothelial cells.
Endothelial cells were isolated from third-order mesenteric arteries of mice using enzymatic digestion followed by labeling the endothelial cells with CD34 antibody-labeled magnetic beads, collecting them using a magnet and then releasing them from the beads by competition. To measure both SK3 and IK1 currents, the cells were dialyzed with KCl-solution containing 3 μM free Ca^2+ and currents elicited using voltage ramps and by the activator NS-309 (see FIGS. 18A-18B).

BK channels [4] = molecular target: T2, BK channels; experiment: Myogenic tone of pressurized mesenteric arteries with BK channel blocker; set-up: species or system mice; settings: for increase of constriction: 120 mm Hg
Description: FIG. 11A is a graph showing the effect of paxilline on myogenic tone measured at 120 mm Hg. Constriction induced by paxilline was calculated as the difference between myogenic tone (%) pre- and post-paxilline. Mean+s.e.m. No heart failure (no HF): N=6 vessels; heart failure (HF): N=5 vessels. ** P<0.01, Student's t test. FIG. 11B is a graph showing that myogenic tone is equivalent in paxilline-treated vessels from control mice and mice with heart failure. Mean+s.e.m. No HF: N=6 vessels; HF: N=5 vessels.
If HF alters myogenic tone by reducing BK channel expression and currents, then the effect of paxilline should be reduced. […] Inhibiting BK channels with paxilline in sham-treated (no HF) control mice caused an increase in myogenic tone, approximating the increased myogenic tone of vessels isolated from HF mice (see FIG. 11B).

[5] = rats; cited from earlier work
[6] = mice; cited from earlier work
[7] = cited from earlier work; for lowering of mean arterial pressure: 30 mg/kg
[8] = cited from earlier work; remark: listed apart in the source
SK channels = settings: cited from earlier work
[9] = tested on: mesenteric resistance vessels; experiment: Dilation of cannulated mesenteric resistance vessels
Description: Vessels were mounted onto cannulas and equilibrated at 80 mm Hg. […] The vessels were continuously constricted with 1 μM phenylephrine. […] At the conclusion of the experiment, the vessels were superfused in a Ca^2+-free solution to determine maximal dilation. Data shown are mean+s.e.m., relative to maximal dilation determined in Ca^2+-free solution. N=4.

[10] = IV bolus in mouse with systolic heart failure, left ventricular pressure-volume recording; type: in vivo; settings: IV bolus 3 mg/kg, wildtype mouse with heart failure (FAC 38%)
Description: (§1) FIG. 22 depicts data of a wildtype mouse with heart failure (FAC 38%) given an IV bolus of SKA-31 (3 mg/kg) through the left internal jugular vein during simultaneous recording of left ventricular pressure and volume using a Milar conductance catheter inserted through the right carotid artery.
as §1, with “In this experiment,” for “FIG. 22 depicts data of”, “38%) was” for “38%)”, “artery. (FIG. 22)” for “artery.”
BK channel deficient mice and wildtype littermates developed an ischemic cardiomyopathy after surgical ligation of the left anterior descending coronary artery. Systolic heart failure was confirmed six weeks later by noting a fractional area of change (FAC) of 40% or lower on 2D echocardiography (Visualsonics Vevo 2100). […] Continuous LV pressure and volume measurements were recorded (MPVS Ultra by Milar with PowerLab 4/35 and LabChart by ADInstruments). After stable baseline LV measurements were recorded, vehicle (Cremophor EL made by Calbiochem) was infused intravenously into the cannulated internal jugular vein as a single bolus in the same volume later used to deliver an intravenous bolus of SKA-31 (Tocris) at 3 mg/kg. […]

[11] = mesenteric arteries from HF mice
[12] = mesenteric arteries from mice without HF

T2 sequence (Q08460 whole entry): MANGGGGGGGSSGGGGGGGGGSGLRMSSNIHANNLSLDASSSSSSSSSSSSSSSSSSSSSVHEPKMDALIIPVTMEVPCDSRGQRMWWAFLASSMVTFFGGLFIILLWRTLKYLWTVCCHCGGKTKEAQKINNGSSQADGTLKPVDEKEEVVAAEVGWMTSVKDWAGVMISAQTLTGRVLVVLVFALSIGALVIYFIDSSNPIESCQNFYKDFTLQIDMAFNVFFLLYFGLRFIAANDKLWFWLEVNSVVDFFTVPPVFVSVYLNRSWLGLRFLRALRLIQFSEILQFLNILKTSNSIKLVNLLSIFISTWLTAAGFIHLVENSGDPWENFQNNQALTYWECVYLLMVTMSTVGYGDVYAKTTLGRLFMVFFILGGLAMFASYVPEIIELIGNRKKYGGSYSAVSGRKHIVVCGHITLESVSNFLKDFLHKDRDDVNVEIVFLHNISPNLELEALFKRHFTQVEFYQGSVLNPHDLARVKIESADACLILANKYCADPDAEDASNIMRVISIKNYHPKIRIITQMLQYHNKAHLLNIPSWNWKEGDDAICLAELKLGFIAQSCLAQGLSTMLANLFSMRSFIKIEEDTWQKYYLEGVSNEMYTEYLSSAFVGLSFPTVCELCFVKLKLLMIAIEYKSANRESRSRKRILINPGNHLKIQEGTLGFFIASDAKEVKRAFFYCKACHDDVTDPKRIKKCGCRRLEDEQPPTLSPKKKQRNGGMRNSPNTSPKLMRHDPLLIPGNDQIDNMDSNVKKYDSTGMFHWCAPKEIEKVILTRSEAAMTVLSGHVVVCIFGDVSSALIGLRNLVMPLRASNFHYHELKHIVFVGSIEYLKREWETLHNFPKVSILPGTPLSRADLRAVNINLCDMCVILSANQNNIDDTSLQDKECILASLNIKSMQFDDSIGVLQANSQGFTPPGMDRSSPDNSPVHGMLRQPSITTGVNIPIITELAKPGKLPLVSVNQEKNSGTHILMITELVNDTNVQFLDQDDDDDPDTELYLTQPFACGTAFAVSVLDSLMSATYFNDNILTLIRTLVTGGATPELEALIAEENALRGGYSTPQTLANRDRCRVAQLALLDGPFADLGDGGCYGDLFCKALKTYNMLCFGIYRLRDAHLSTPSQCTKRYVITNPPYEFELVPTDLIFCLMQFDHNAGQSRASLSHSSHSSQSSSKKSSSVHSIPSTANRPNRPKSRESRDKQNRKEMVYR
T2 sequence (Q8CAE3 whole entry partner): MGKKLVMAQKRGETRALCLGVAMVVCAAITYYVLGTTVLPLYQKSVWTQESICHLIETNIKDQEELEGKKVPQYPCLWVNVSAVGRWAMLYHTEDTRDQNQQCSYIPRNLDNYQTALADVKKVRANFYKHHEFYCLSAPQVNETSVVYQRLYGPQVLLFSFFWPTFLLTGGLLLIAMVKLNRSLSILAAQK

Note: rank of activity (human KCNN3 (SK3)): least active
Compound: Cc1ccc2ccc3sc(N)nc3c2c1 [XX-03-64]

Compound: angiotensin II (DRVYIHPF; Angiotensin-2; UniProt P01019 25-32, looked up) [Ang II, circulating angiotensin II]
suppression of BK current (BK channels [1]): 50%

Compound: CC(=O)c1c(O)c(C)c(O)c(Cc2c(O)c3c(c(C(=O)/C=C/c4ccccc4)c2O)OC(C)(C)C=C3)c1O [rottlerin, Rottlerin]
plasma level [2]: 2.9 µg/mL

Compound: NS-309
half-life [3]: extremely short half-life
activation of SK/IK channels (SK3 and IK1 channels; 5 μM NS-309): reversible NS-309 (5 μM) activation of SK/IK channels
endothelial cell membrane potential (SK3 and IK1 channels; NS309): caused hyperpolarization of the endothelial cell membrane potential

Compound: C[N+](C)(C)CCOC(N)=O [carbachol]
endothelial cell membrane potential (SK3 and IK1 channels; carbachol 2 μM): hyperpolarization of endothelial cell membrane potential

Compound: CC(C)(O)[C@H]1O[C@H]2CC[C@@]3(C)[C@@](O)(CC[C@H]4Cc5c([nH]c6ccccc56)[C@@]43C)C2=CC1=O [paxilline]
relative increase in myogenic tone (BK channels [4]; [11]): 3%
increase of constriction (BK channels [4]; [11]): 0.9%
relative increase in myogenic tone (BK channels [4]; [12]): 51.9%
increase of constriction (BK channels [4]; [12]): 10.9%

Note: rank of activity (human KCNN3 (SK3)): 2nd most active
Compound: COc1ccc2c(ccc3sc(N)nc32)c1 [XX-03-52]

Note: rank of activity (human KCNN3 (SK3)): Most active
Compound: Nc1nc2c(ccc3cc(Cl)ccc32)s1 [XX-03-56]

Compound: Nc1nc2c(ccc3ccccc32)s1 [XX-03-58, naphtha[1,2-d]thiazol-2-ylamine]
acute toxicity [5]: no acute toxicity
acute toxicity [6]: no acute toxicity
lowering of mean arterial pressure ([7]; mice with hypertension): 12 mm Hg
lowering of mean arterial pressure ([7]; normal mice): 6 mm Hg
lowering of blood pressure ([7]; single IP injection 10 mg/kg, at 24 h): 4 mm Hg
free plasma level ([8]; 10 mg/kg IP, 24 h): 300 nM
plasma concentration ([8]; 10 mg/kg IP, mice, 2 h): 5.5 µM
plasma concentration ([8]; 10 mg/kg IP, mice, 4 h): 1.4 µM
plasma concentration ([8]; 10 mg/kg IP, mice, 24 h): 0.5 µM
free in plasma ([8]; mice): 61%
plasma protein-bound ([8]; mice): 39%
EC50 of SK channel activation (SK channels): low μM range
dilation of vessels ([9]; intraluminal 250 nM or 1 μM, vessels of control mice and mice with HF): effectively dilated the vessels
dilation of vessels ([9]; phenylephrine-constricted vessels of BK β1 null mice): caused dilatation of vessels from β1 null mice to a similar extent as vessels from WT mice
cardiac work [10]: improves cardiac work

Compound: Clc1ccccc1C(c1ccccc1)(c1ccccc1)n1cccn1 [TRAM-34]
effect on SKA-31 (1 μM)-mediated vasodilation ([9]; intraluminal 1 μM TRAM-34 and 100 nM apamin together, phenylephrine-constricted vessels): prevented
